From patent publication US20190151341A1, “APPLICATION OF TENVERMECTIN FOR PREVENTING AND TREATING PARASITE INFECTION” (ZHEJIANG HISUN PHARMACEUTICAL CO., LTD., priority 2016, published 2019)

Legend:
zebrafish = experiment: Toxicity to zebrafish, semi-static method, 96 hours; conditions: 8 h
Method: Test agents: avermectin, milbemycin, ivermectin, tenvermectin A and tenvermectin B were all from Zhejiang Hisun Pharmaceutical Co., Ltd. The samples were formulated into 50 mg/ml mother liquors with DMF.
Test fish and water: zebrafish (Brachydanio rerio) was purchased from Zhejiang Academy of Agricultural Sciences, with the same size, average body length of 2-3 cm and average body weight of 0.3 g. The zebrafish was domesticated for 7 days indoors before the test. […] Feeding was stopped 1 day before the test and the fish were not fed during the test. The test water was tap water with residual chlorine removed by exposure to the sun for more than 24 hours, and the pH thereof was 6.8.
Test methods: semi-static method. Three level differences were provided for each sample: 0.5 ppm, 1.0 ppm and 1.5 ppm, and three parallel groups were provided for each level difference, 10 zebrafish were raised for each group, and blank controls (one group without agents and one group with only solvent) were provided. The corresponding volume of mother liquor was taken according to the concentration as required for each sample, and the volume of each sample was adjusted to 150 μl with DMF, and then each sample was added to the test group (containing 1.6 L of water). The room temperature was controlled at 22±2° C. for 96 hours, and the water was changed every 24 hours and the samples were re-added. The fish mortality rate was recorded for the first 8 hours and at 24, 48, 72 and 96 hours, and the dead fish were removed in time.

[1] = tested on: allogynogenetic crucian carp; experiment: Toxicity to allogynogenetic crucian carp, semi-static method, 96 hours; type: in vivo
Excerpt: Test fish and water: allogynogenetic crucian carp was purchased from Taowang Farm in Jiaojiang District, Taizhou City, with a body length of (9.60±0.52) cm and a body weight of (28.22±3.44) g. The healthy and vigorous fish with the same size were selected and temporarily raised in an indoor aquarium. They were domesticated for 7 days indoors before the test. The natural mortality rate was zero.
99.4% Tenvermectin A (the mass content of tenvermectin B was 0.02%) (Zhejiang Hisun Pharmaceutical Co., Ltd.);
Tenvermectin (the mass ratio of tenvermectin A/tenvermectin B was 95/5) (Zhejiang Hisun Pharmaceutical Co., Ltd.);
Tenvermectin (the mass ratio of tenvermectin A/tenvermectin B was 90/10) (Zhejiang Hisun Pharmaceutical Co., Ltd.);
Tenvermectin (the mass ratio of tenvermectin A/tenvermectin B was 85/15) (Zhejiang Hisun Pharmaceutical Co., Ltd.);
99.1% Tenvermectin B (the mass content of tenvermectin A was 0.51%) (Zhejiang Hisun Pharmaceutical Co., Ltd.);
92% Avermectin (Zhejiang Qianjiang Biochemical Co., Ltd.);
96% Ivermectin (Zhejiang Hisun Pharmaceutical Co., Ltd.);
90% Methylamino avermectin benzoate (Emamectin benzoate) (Zhejiang Shenghua Biok Biotechnology Co., Ltd.).
Method: semi-static method. […]

[2] = tested on: swine nematode (nematodes in the digestive tract); experiment: Repelling swine nematode in naturally infected pigs (fecal egg count, McMaster's method); type: in vivo; conditions: 1% injection 0.2 mg/kg bw s.c.
Excerpt: (§1) Test agents: 1% ivermectin injection, 1% tenvermectin A injection, and 1% tenvermectin B injection as obtained in Example 1.
(§2) Test animals and grouping: pigs cultured in the same farm were selected, and 40 pigs naturally infected with nematodes in the digestive tract were selected for testing through fecal examination. The average weight of the test pigs was 30-50 kg. Forty pigs were randomly divided into 4 groups, 10 for each group. The first group was the ivermectin control group, the second group was the tenvermectin A group, and the third group was the tenvermectin B group. All the medicated groups were injected subcutaneously in the neck according to 0.2 mg/kg·bw. The forth group was a blank group and was not administered.
(§3) 1) The feces of the pigs in each group were collected and examined one by one a day before administration, and worm eggs were counted by the McMaster's method. The number of eggs per gram of feces (EPG) was counted and the condition of Haematopinus on the body surface was observed.
(§4) 2) 1, 2, 3 and 4 weeks after administration, the feces of the pigs in each group were examined by the McMaster's method, and the EPG was counted and the changes of Haematopinus on the body surface were observed.
3) The negative conversion rates and egg reduction rates of the test pigs were calculated by a conventional method to assess the efficacy of repelling swine nematode.

swine Haematopinus = experiment: Killing effect on swine Haematopinus on the body surface; type: in vivo; conditions: pigs, 1% injection 0.2 mg/kg bw s.c., until the 7th day and in the following 3 weeks
Excerpt: as §1, §2, §3, §4
4) The killing effects of swine Haematopinus of the agents were assessed according to the survival of swine Haematopinus on the 7th day after administration.

[3] = tested on: digestive tract nematodes; experiment: Repelling nematode in digestive track of sheep (fecal egg count); type: in vivo
Excerpt: as §1
Test animals and grouping: sheep grazed under the same condition were selected, and 80 sheep of 0.8-2.0 years old naturally infected with digestive tract nematodes were selected through fecal examination. The average weight of the test sheep was 30 kg. The 80 sheep were randomly divided into 4 groups, 20 heads for each group. The first group was the ivermectin control group, the second group was the tenvermectin A group, and the third group was the tenvermectin B group. All the medicated groups were injected subcutaneously in the neck according to 0.2 mg/kg·bw. The fourth group was a blank group and was not medicated.
1) The feces of the sheep in each group were collected and examined one by one a day before administration, and the worm eggs were counted by the McMaster's method, and the number of eggs per gram of feces (EPG) was counted.
2) On the 9th day after administration, the sheep of each group were subjected to a fecal examination by McMaster's method, and EPG was counted.
3) The egg negative conversion rates and egg reduction rates were calculated according to a conventional method to assess the efficacy.

Sarcoptes mites = experiment: Treatment of Sarcoptes mites of sheep (skin scrapings, live mites); type: in vivo; conditions: 1% injection 0.2 mg/kg bw s.c.; for Negative conversion number: sheep (10 per group); for Negative conversion rate (%): sheep
Excerpt: Test agents: 1% ivermectin injection, 1% tenvermectin A injection and 1% tenvermectin B injection as obtained in Example 1.
Test animals and grouping: sheep grazed under the same conditions were selected. Upon parasitological examination, 40 sheep which had been infected with sheep Sarcoptes mites were selected. The 40 sheep were randomly divided into 4 groups, 10 heads for each group. The first group was the ivermectin control group, the second group was the tenvermectin A group, and the third group was the tenvermectin B group. All the medicated groups were injected subcutaneously in the neck according to 0.2 mg/kg·bw. The fourth group was a blank group and was not medicated.
Test methods: the changes of clinical symptoms were observed. The skin of sheep was scratched using a surgical blade with glycerin at the junction of the affected part and the healthy skin of the diseased sheep until the skin slightly bled. The skin scraps were taken then were placed in a dish and brought back to the laboratory. Then the skin scraps were placed on a slide, a drop of aqueous solution of 50% glycerol was added, and a cover slip was covered, and then the skin scraps were checked under a low magnification microscope. It was confirmed to be positive if live Sarcoptes mites were observed. Samples were taken before administration and at 1, 2, 3 and 4 weeks after administration to be examined. The samples were examined under a microscope, based on whether live mites were observed, the samples can be determined to be positive as long as one live mite was observed. Changes of clinical symptoms were observed as references.

[4] = allogynogenetic crucian carp, 0.5 ppm, 8 h
[5] = allogynogenetic crucian carp, 1.0 ppm, 8 h
[6] = allogynogenetic crucian carp, 2.0 ppm, 8 h
[7] = sheep, 1% injection 0.2 mg/kg bw s.c., 9th day after administration

## CC[C@H](C)[C@H]1O[C@]2(C=C[C@@H]1C)C[C@@H]1C[C@@H](C/C=C(\C)[C@@H](O[C@H]3C[C@H](OC)[C@@H](O[C@H]4C[C@H](OC)[C@@H](O)[C@H](C)O4)[C@H](C)O3)[C@@H](C)/C=C/C=C3\CO[C@@H]4[C@H](O)C(C)=C[C@@H](C(=O)O1)[C@]34O)O2 [Avermectin, reference compound]
zebrafish; 0.5 ppm
  Survival condition (survival rates/%): 0%
zebrafish; 1.0 ppm
  Survival condition (survival rates/%): 0%
zebrafish; 1.5 ppm
  Survival condition (survival rates/%): 0%
[1]; [4]
  Survival condition (survival rates/%): 0%
[1]; [5]
  Survival condition (survival rates/%): 0%
[1]; [6]
  Survival condition (survival rates/%): 0%

## Milbemycin [reference compound]
zebrafish; 0.5 ppm
  Survival condition (survival rates/%): 0%
zebrafish; 1.0 ppm
  Survival condition (survival rates/%): 0%
zebrafish; 1.5 ppm
  Survival condition (survival rates/%): 0%
[1]; in vivo
  Survival condition (survival rates/%): 0%

## CC[C@H](C)C1O[C@]2(C=C[C@@H]1C)C[C@@H]1C[C@@H](C/C=C(\C)[C@@H](O[C@H]3C[C@H](OC)[C@@H](O[C@H]4C[C@H](OC)[C@H](NC)[C@H](C)O4)[C@H](C)O3)[C@@H](C)/C=C/C=C3\CO[C@@H]4[C@H](O)C(C)=C[C@@H](C(=O)O1)[C@]34O)O2.O=C(O)c1ccccc1 (some centres unmarked) [Methylamino avermectin benzoate, reference compound]
zebrafish; 0.5 ppm
  Survival condition (survival rates/%): 0%
zebrafish; 1.0 ppm
  Survival condition (survival rates/%): 0%
zebrafish; 1.5 ppm
  Survival condition (survival rates/%): 0%
[1]; [4]
  Survival condition (survival rates/%): 0%
[1]; [5]
  Survival condition (survival rates/%): 0%
[1]; [6]
  Survival condition (survival rates/%): 0%

## Ivermectin [reference compound]
zebrafish; 0.5 ppm
  Survival condition (survival rates/%): 0%
zebrafish; 1.0 ppm
  Survival condition (survival rates/%): 0%
zebrafish; 1.5 ppm
  Survival condition (survival rates/%): 0%
[2]; 1st week after administration
  Egg reduction rate (%): 76.2%
  Negative conversion rate (%): 70%
[2]; 2nd week after administration
  Egg reduction rate (%): 91.2%
  Negative conversion rate (%): 90%
[2]; 3rd week after administration
  Egg reduction rate (%): 100%
  Negative conversion rate (%): 80%
[2]; 4th week after administration
  Egg reduction rate (%): 66.2%
  Negative conversion rate (%): 60%
Swine Haematopinus
  active Haematopinus observed on the body surface: no active Haematopinus was found
[1]; [4]
  Survival condition (survival rates/%): 0%
[1]; [5]
  Survival condition (survival rates/%): 0%
[1]; [6]
  Survival condition (survival rates/%): 0%
[3]; sheep (20 per group), 1% injection 0.2 mg/kg bw s.c., 9th day after administration
  Number of sheep negatively conversed: 20
[3]; [7]
  Egg reduction rate (%): 100%
  Negative conversion rate (%): 100%
[3]; sheep, eggs per gram of feces, 0.2 mg/kg bw s.c., 9th day after administration
  EPG after administration: 0
[3]; sheep, eggs per gram of feces, baseline a day before administration
  EPG before administration: 9100
Sarcoptes mites; 1st week
  Negative conversion number: 7
  Negative conversion rate (%): 70%
Sarcoptes mites; 2nd week
  Negative conversion number: 9
  Negative conversion rate (%): 90%
Sarcoptes mites; 3rd week
  Negative conversion number: 10
  Negative conversion rate (%): 100%
Sarcoptes mites; 4th week
  Negative conversion number: 10
  Negative conversion rate (%): 100%
